Reference: patent publication US10765745B2, “Multifunctional nanoparticle systems and methods for cancer diagnosis and combination therapy” (BOARD OF REGENTS, THE UNIVERSITY OF TEXAS SYSTEM, priority 2015, dated 2020)

How the values were obtained:
AT1 cells [1] = assay: 24-hour cytocompatibility (MTS and Picogreen dsDNA); format: cell-based, human; details: 10 μM
Experimental: (§1) Human dermal fibroblasts (HDFs) and AT1 cells were seeded at a density of 5000 cells/well in a 96 well plate and allowed to attach at 37° C. and 5% CO2 for 24 hours. […] Following incubation, the cells were washed with 1× sterile PBS and cell viability was assessed using MTS and Picogreen dsDNA assays (e.g., available from Life Technologies, located in Grand Island, N.Y.) according to manufacturer's instructions. MTS assay measures the percentage of cells alive in each well compared to the controls. These findings were validated using Picogreen dsDNA assay which calculates the amount of total cell DNA present in each well compared to the control.

[2] = test system: folate receptors on H460 lung cancer cells; assay: Folic acid binding, Resonant Sensors Bioassay (peak shift); details: 0-15 μM, 3 hours
Experimental: (§2) The binding of folic acid to folate receptors was studied using Resonant Sensors Bioassay system (e.g., available from Resonant Sensors Inc. (RSI), located in Arlington, Tex.). A549 and H460 lung cancer cells as well as AT1 cells were seeded at a density of 10,000 cells/well in RSI sensor 96-well plates, which were incubated at […] for 24 hours to allow cell attachment. For folic acid binding efficiency studies, the cells were incubated with folic acid at varying concentrations (i.e., 0, 0.1, 1, 5, 10, 15 μM) for 3 hours in the RSI system and peak shift with cell binding over time was studied.

[3] = test system: folate receptors on A549 lung cancer cells; assay: as above; details: 0-15 μM, 3 hours
Experimental: as §2

[4] = test system: folate receptors on AT1 cells; assay: as above; design: species or system human; details: 0-15 μM, 3 hours
Experimental: as §2

[5] = test system: human dermal fibroblasts (HDFs); assay: 24-hour cytocompatibility (MTS and Picogreen dsDNA); format: cell-based; details: 10 μM
Experimental: as §1

AT1 cells [6] = assay: Cell activation study: cytokine ELISA; format: cell-based, human; details: 24 hours; MDNPs at 1 mg/mL; LPS positive control
Experimental: (§3) To study cytokine production, the concentration of interleukin-1 alpha (IL-1∞), interleukin-1 beta (IL-1β), interleukins 2, 4, 6, 8, 10, 12, 10A, and tumor necrosis factor-alpha (TNF-α) in the medium was measured using Multi-Analyte ELISAArray Kit (SA Biosciences, Frederick, Md.) according to the manufacturer's directions.
The cells stimulated using LPS (positive control) produced 0.25 ng/ml IL-6, 1.27 ng/ml IL-8, 0.24 ng/ml IL-10 and 0.11 ng/ml TNF-α inflammatory cytokines.

human AT1 cells = assay: Cell activation study: intracellular ROS production (H2DCFDA); format: cell-based; details: positive control, 10 μg/ml
Experimental: A cell activation study was conducted to determine whether NP uptake causes oxidative stress in the cells in vitro. For example, human AT1 cells were seeded in tissue culture plates and incubated overnight as described earlier. The next day, cells were exposed to two different concentrations of each NP (250 μg/ml and 1000 μg/ml) and incubated for another 24 hours. Cells exposed to 10 μg/ml lipopolysaccharide (LPS) were considered as a positive control while cells exposed to media only served as the negative control. To detect the Intracellular Reactive Oxygen Species (ROS) production on NP exposure, cells were then washed thrice with PBS and incubated with 5 μM of 2′,7′-dichlorodihydrofluorescein diacetate (H2DCFDA) solution in PBS for 30 minutes. The cells were then washed again with PBS and fluorescence was measured at λex of 485 nm and […] using a spectrophotometer.
as §3

Compound | cytocompatibility (MTS) (AT1 cells [1]) | peak shift [2] | peak shift [3] | peak shift [4] | cytocompatibility (MTS) [5] | IL-6 produced (AT1 cells [6]) [ng/mL] | IL-8 produced (AT1 cells [6]) [ng/mL] | IL-10 produced (AT1 cells [6]) [ng/mL] | TNF-α produced (AT1 cells [6]) [ng/mL] | ROS production, % of the control (human AT1 cells) [%]
Nc1nc2ncc(CNc3ccc(C(=O)N[C@@H](CCC(=O)O)C(=O)O)cc3)nc2c(=O)[nH]1 [folic acid] | non-toxic | comparatively larger peak shift | increase in peak shift | no dose-dependent increase in peak shift | non-toxic | – | – | – | – | –
lipopolysaccharide [LPS] | – | – | – | – | – | 0.25 | 1.27 | 0.24 | 0.11 | 425
